Two compounds from BindingDB's records for doi:10.1074/jbc.M805358200 (University of Pittsburgh, 2008) can be followed below.

SMILES strings stand for the structures. pIC50: −log10 of the molar value. A value given as a limit tells only on which side of the number the result lay.

Holding throughout (experiment): IMAP-Based HTS FP Assay/ TR-FRET Assay
For orientation: Time-resolved FRET reads energy transfer from a long-lived donor to a nearby acceptor.

Assay [1] has as its target Cyclin-dependent kinase 7 (Homo sapiens, UniProt P50613). The text has this: (§1) An IMAP-based PKD HTS FR assay was used for primary HTS of the PMLSC library to identify hit compounds and subsequent secondary hit confirmation studies.
Assay [2] deals with RAC-alpha serine/threonine-protein kinase (Homo sapiens, UniProt P31749).
Sequence of RAC-alpha serine/threonine-protein kinase (P31749 whole entry): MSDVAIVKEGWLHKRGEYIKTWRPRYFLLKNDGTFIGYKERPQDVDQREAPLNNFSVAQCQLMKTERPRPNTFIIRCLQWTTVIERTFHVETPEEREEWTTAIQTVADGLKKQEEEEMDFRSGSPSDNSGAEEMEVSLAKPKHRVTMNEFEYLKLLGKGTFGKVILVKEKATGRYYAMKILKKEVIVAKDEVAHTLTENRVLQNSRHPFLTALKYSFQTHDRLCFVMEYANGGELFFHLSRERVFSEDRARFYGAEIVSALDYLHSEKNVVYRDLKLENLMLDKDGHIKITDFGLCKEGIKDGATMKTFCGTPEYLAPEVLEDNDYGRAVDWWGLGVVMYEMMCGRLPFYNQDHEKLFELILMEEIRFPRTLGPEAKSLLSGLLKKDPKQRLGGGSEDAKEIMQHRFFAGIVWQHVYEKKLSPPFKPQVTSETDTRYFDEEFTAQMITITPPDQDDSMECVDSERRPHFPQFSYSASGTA
From the text: as §1

The target of assay [3] is T1, Serine/threonine-protein kinase D1 (Homo sapiens, UniProt Q15139).
T1 sequence (Q15139 whole entry): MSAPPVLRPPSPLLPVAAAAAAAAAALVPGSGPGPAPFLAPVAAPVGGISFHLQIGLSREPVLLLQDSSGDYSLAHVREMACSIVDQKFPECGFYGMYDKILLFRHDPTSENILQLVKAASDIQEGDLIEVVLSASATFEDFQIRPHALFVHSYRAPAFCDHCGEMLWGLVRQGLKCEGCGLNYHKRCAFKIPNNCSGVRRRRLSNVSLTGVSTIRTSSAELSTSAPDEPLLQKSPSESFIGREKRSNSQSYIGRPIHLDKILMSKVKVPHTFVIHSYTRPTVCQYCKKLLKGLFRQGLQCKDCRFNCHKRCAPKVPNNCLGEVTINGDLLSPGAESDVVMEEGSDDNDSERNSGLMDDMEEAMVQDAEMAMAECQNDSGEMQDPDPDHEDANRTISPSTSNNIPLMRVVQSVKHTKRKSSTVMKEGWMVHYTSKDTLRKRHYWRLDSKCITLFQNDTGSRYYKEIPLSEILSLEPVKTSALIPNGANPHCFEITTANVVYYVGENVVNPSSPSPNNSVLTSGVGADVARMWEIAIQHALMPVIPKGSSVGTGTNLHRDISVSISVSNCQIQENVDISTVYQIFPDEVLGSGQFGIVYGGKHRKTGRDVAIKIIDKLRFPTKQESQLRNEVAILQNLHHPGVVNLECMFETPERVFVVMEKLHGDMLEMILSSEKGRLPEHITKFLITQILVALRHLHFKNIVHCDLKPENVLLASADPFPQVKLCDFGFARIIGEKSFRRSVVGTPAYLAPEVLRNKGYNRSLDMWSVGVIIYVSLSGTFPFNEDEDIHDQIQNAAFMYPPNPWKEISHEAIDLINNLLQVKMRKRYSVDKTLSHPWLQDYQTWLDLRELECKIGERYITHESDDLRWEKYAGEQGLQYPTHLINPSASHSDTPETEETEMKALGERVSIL
From the text: as §1

Assay [4] deals with Serine/threonine-protein kinase PLK1 (Homo sapiens, UniProt P53350).
Sequence of Serine/threonine-protein kinase PLK1 (P53350 whole entry): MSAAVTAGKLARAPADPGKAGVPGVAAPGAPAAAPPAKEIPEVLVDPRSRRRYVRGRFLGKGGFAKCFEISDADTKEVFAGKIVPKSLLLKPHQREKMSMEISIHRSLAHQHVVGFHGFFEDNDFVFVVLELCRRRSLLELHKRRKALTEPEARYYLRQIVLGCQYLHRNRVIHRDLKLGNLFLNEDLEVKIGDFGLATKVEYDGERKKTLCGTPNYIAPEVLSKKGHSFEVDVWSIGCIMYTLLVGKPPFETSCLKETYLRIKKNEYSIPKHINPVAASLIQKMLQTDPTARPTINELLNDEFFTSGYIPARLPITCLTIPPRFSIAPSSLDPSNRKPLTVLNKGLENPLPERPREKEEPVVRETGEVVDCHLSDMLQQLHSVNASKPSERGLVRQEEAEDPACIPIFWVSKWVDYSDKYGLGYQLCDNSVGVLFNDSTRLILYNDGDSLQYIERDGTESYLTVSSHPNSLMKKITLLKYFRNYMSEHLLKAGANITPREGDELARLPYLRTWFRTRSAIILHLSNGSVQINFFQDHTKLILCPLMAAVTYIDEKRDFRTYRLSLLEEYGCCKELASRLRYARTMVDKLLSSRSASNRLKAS
From the text: as §1

What is called pIC50 is −log10 of the IC50, conventionally taken in molar units. High values mean a low IC50, low ones a high IC50.

Sequence of Cyclin-dependent kinase 7 (P50613 whole entry): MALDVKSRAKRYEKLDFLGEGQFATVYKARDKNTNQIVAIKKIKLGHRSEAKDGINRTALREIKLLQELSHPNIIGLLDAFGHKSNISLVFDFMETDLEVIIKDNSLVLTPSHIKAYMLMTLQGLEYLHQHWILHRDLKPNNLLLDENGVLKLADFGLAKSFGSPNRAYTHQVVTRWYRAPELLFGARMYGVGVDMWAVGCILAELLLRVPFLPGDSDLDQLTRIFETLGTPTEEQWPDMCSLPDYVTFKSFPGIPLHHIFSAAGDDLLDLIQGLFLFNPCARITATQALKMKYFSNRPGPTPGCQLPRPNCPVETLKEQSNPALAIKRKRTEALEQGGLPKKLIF

As for `O=C1NCCCc2c1oc1ccc(O)cc21` [7-hydroxy-2,3,4,5-tetrahydro-[1]benzofuro[2,3-c]azepin-1-one], the pIC50 is 4.82 in assay [1], less than 4.30 in assay [2], 6.30 in assay [3] and 4.69 in assay [4].

Consider `O=c1oc2ccc(O)cc2c2c1NCCC2` [CID 797718], for which the negative logarithm of the IC50 (pIC50) in assay [1] was 5.08; in assay [2] it was less than 4.30; in assay [4], 4.66.
